# Results from PubChem BioAssay (NCI).
#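 Interpolation was linear, between the two tested concentrations surrounding the appropriate level; five concentrations were tested over 48 hours in 96-well plates. GI50 is the concentration that inhibits growth by half. TGI is the concentration that stops growth completely.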
# Tests used:
# Assay in all cases: NCI anticancer screen, dose series, 48 h
# [1] = tested on: UACC-257 melanoma
# [2] = tested on: UACC-62 melanoma
# [3] = tested on: DU-145 prostate
# [4] = tested on: SK-MEL-5 melanoma
# [5] = tested on: OVCAR-4 ovarian
# [6] = tested on: TK-10 renal
# [7] = tested on: A549 NSCLC
# [8] = tested on: T-47D breast
# [9] = tested on: OVCAR-8 ovarian
# [10] = tested on: SNB-75 CNS
# [11] = tested on: RXF 393 renal
# [12] = tested on: SK-MEL-2 melanoma
# [13] = tested on: UO-31 renal
# [14] = tested on: BT-549 breast
# [15] = tested on: HCC-2998 colon
# [16] = tested on: MDA-MB-231 breast
# [17] = tested on: HCT-15 colon
# [18] = tested on: OVCAR-5 ovarian
# [19] = tested on: HS 578T breast
# [20] = tested on: A498 renal
# [21] = tested on: RPMI-8226 leukemia
# [22] = tested on: MALME-3M melanoma
# [23] = tested on: CCRF-CEM leukemia
# [24] = tested on: ACHN renal
# [25] = tested on: SK-MEL-28 melanoma
# [26] = tested on: COLO 205 colon
# [27] = tested on: M14 melanoma
# [28] = tested on: MCF7 breast
# [29] = tested on: OVCAR-3 ovarian
# [30] = tested on: HOP-92 NSCLC
# [31] = tested on: HOP-62 NSCLC
# [32] = tested on: K-562 leukemia
# [33] = tested on: MOLT-4 leukemia
# [34] = tested on: IGROV1 ovarian
# [35] = tested on: U251 CNS
# [36] = tested on: CAKI-1 renal
# [37] = tested on: SR leukemia
# [38] = tested on: NCI-H226 lung
# [39] = tested on: 786-0 renal
# [40] = tested on: SNB-19 CNS
# [41] = tested on: SN12C renal
# [42] = tested on: NCI-H522 lung
# [43] = tested on: HT29 colon
# [44] = tested on: SF-295 CNS
# [45] = tested on: SF-539 CNS
# [46] = tested on: SW-620 colon
# [47] = tested on: EKVX NSCLC
# [48] = tested on: SF-268 CNS
# [49] = tested on: HCT-116 colon
# [50] = tested on: NCI-H23 lung
# [51] = tested on: SK-OV-3 ovarian
# [52] = tested on: LOX IMVI melanoma
# [53] = tested on: PC-3 prostate
# [54] = tested on: MDA-MB-435
# [55] = tested on: NCI-H460 lung
# [56] = tested on: NCI/ADR-RES ovarian
# [57] = tested on: HL-60(TB) leukemia
# [58] = tested on: KM12 colon
smiles,measurement,setting,value
COc1cc(/C=N/O)nc(-c2ccccn2)c1,GI50,[1],0.679 µM
same,TGI,[1],9.43 µM
same,GI50,[2],0.325 µM
same,TGI,[2],2.7 µM
same,GI50,[3],0.4 µM
same,TGI,[3],> 75.3 µM
same,TGI,[4],1.31 µM
same,GI50,[5],0.255 µM
same,TGI,[5],> 100 µM
same,GI50,[6],0.325 µM
same,TGI,[6],> 100 µM
same,TGI,[7],> 100 µM
same,GI50,[8],0.465 µM
same,TGI,[8],> 100 µM
same,GI50,[9],0.348 µM
same,TGI,[9],22.8 µM
same,GI50,[10],0.5 µM
same,GI50,[11],0.723 µM
same,TGI,[11],14.8 µM
same,GI50,[12],1.86 µM
same,TGI,[12],> 100 µM
same,GI50,[13],0.183 µM
same,TGI,[13],6.82 µM
same,GI50,[14],0.803 µM
same,TGI,[14],> 100 µM
same,GI50,[15],0.341 µM
same,TGI,[15],> 100 µM
same,GI50,[16],0.541 µM
same,TGI,[16],> 100 µM
same,GI50,[17],0.197 µM
same,TGI,[17],> 100 µM
same,GI50,[18],0.637 µM
same,TGI,[18],> 100 µM
same,GI50,[19],3.76 µM
same,TGI,[19],> 100 µM
same,GI50,[20],0.717 µM
same,TGI,[20],19.4 µM
same,TGI,[21],> 100 µM
same,GI50,[22],0.431 µM
same,TGI,[22],12.2 µM
same,GI50,[23],0.207 µM
same,TGI,[23],> 33.2 µM
same,GI50,[24],0.241 µM
same,TGI,[24],12.6 µM
same,GI50,[25],0.476 µM
same,TGI,[25],> 100 µM
same,GI50,[26],0.305 µM
same,TGI,[26],> 100 µM
same,TGI,[27],4.98 µM
same,GI50,[28],0.347 µM
same,TGI,[28],> 100 µM
same,GI50,[29],0.324 µM
same,TGI,[29],> 100 µM
same,GI50,[30],0.551 µM
same,TGI,[30],> 100 µM
same,GI50,[31],0.358 µM
same,TGI,[31],> 69.7 µM
same,TGI,[32],> 100 µM
same,GI50,[33],0.281 µM
same,TGI,[33],25.1 µM
same,GI50,[34],0.349 µM
same,TGI,[34],24.1 µM
same,GI50,[35],0.374 µM
same,TGI,[35],> 100 µM
same,TGI,[36],8.97 µM
same,GI50,[37],0.284 µM
same,TGI,[37],22.2 µM
same,GI50,[38],0.325 µM
same,TGI,[38],5.93 µM
same,GI50,[39],0.465 µM
same,TGI,[39],27.5 µM
same,GI50,[40],0.558 µM
same,TGI,[40],> 100 µM
same,GI50,[41],0.434 µM
same,TGI,[41],> 44.7 µM
same,GI50,[42],0.565 µM
same,TGI,[42],> 100 µM
same,GI50,[43],0.454 µM
same,TGI,[43],> 100 µM
same,TGI,[44],> 35.5 µM
same,GI50,[45],0.386 µM
same,TGI,[45],10.4 µM
same,GI50,[46],0.415 µM
same,TGI,[46],> 100 µM
same,GI50,[47],0.342 µM
same,TGI,[47],> 100 µM
same,GI50,[48],0.357 µM
same,TGI,[48],68.2 µM
same,GI50,[49],0.351 µM
same,TGI,[49],> 100 µM
same,TGI,[50],> 100 µM
same,TGI,[51],> 100 µM
same,GI50,[52],0.271 µM
same,TGI,[52],10.8 µM
same,GI50,[53],0.437 µM
same,TGI,[53],> 100 µM
same,GI50,[54],0.492 µM
same,TGI,[54],> 100 µM
same,GI50,[55],0.304 µM
same,TGI,[55],12.9 µM
same,GI50,[56],0.294 µM
same,TGI,[56],10.9 µM
same,GI50,[57],0.271 µM
same,TGI,[57],2.81 µM
same,GI50,[58],0.385 µM
same,TGI,[58],> 100 µM
CCN1CCN(c2cc(C)nc(NCc3cc(Nc4ccnc5cc(Cl)ccc45)ccc3F)n2)CC1,GI50,[1],2.17 µM
same,TGI,[1],4.33 µM
same,GI50,[3],2.74 µM
same,TGI,[3],42.3 µM
same,GI50,[4],1.55 µM
same,TGI,[4],2.99 µM
same,GI50,[5],2.08 µM
same,TGI,[5],> 100 µM
same,GI50,[6],18.8 µM
same,TGI,[6],45.4 µM
same,GI50,[7],5.1 µM
same,TGI,[7],> 100 µM
same,GI50,[8],1.42 µM
same,TGI,[8],4.31 µM
same,GI50,[9],4.11 µM
same,TGI,[9],> 100 µM
same,GI50,[10],10.5 µM
same,TGI,[10],30.8 µM
same,GI50,[11],1.86 µM
same,TGI,[11],4.19 µM
same,GI50,[12],2.53 µM
same,TGI,[12],6.52 µM
same,GI50,[13],1.61 µM
same,TGI,[13],3.89 µM
same,GI50,[14],5.36 µM
same,TGI,[14],21.8 µM
same,GI50,[15],2.59 µM
same,TGI,[15],31.3 µM
same,GI50,[16],2.02 µM
same,TGI,[16],5.99 µM
same,GI50,[17],2.19 µM
same,TGI,[17],11.7 µM
same,GI50,[18],1.67 µM
same,TGI,[18],17.7 µM
same,GI50,[19],5.34 µM
same,TGI,[19],50.6 µM
same,GI50,[20],1.89 µM
same,TGI,[20],8.05 µM
same,GI50,[21],2.13 µM
same,TGI,[21],8.72 µM
same,GI50,[22],1.95 µM
same,TGI,[22],3.91 µM
same,GI50,[23],2.55 µM
same,TGI,[23],> 100 µM
same,GI50,[24],2.89 µM
same,TGI,[24],11.3 µM
same,GI50,[25],1.84 µM
same,TGI,[25],3.71 µM
same,GI50,[26],0.897 µM
same,TGI,[26],2.81 µM
same,GI50,[27],1.72 µM
same,TGI,[27],3.4 µM
same,GI50,[28],0.302 µM
same,TGI,[28],16.9 µM
same,GI50,[29],2.94 µM
same,TGI,[29],11.8 µM
same,GI50,[30],2.58 µM
same,TGI,[30],19.4 µM
same,GI50,[31],3.59 µM
same,TGI,[31],24.1 µM
same,GI50,[32],1.04 µM
same,TGI,[32],> 100 µM
same,GI50,[33],2.34 µM
same,TGI,[33],> 100 µM
same,GI50,[34],3.31 µM
same,TGI,[34],34.1 µM
same,GI50,[35],3.28 µM
same,TGI,[35],12.6 µM
same,GI50,[36],2.82 µM
same,TGI,[36],17.1 µM
same,GI50,[37],2.14 µM
same,TGI,[37],9.3 µM
same,GI50,[38],15.4 µM
same,TGI,[38],48.9 µM
same,GI50,[39],2.07 µM
same,TGI,[39],5.88 µM
same,GI50,[40],3.71 µM
same,TGI,[40],> 100 µM
same,GI50,[41],4.48 µM
same,TGI,[41],27 µM
same,GI50,[42],7.21 µM
same,TGI,[42],36 µM
same,GI50,[43],0.957 µM
same,TGI,[43],5.32 µM
same,GI50,[44],2.05 µM
same,TGI,[44],5.96 µM
same,GI50,[45],1.72 µM
same,TGI,[45],3.42 µM
same,GI50,[46],2.32 µM
same,TGI,[46],15.1 µM
same,GI50,[47],5.45 µM
same,TGI,[47],> 100 µM
same,GI50,[48],4.09 µM
same,TGI,[48],40 µM
same,GI50,[49],1.2 µM
same,TGI,[49],4.1 µM
same,GI50,[50],5.79 µM
same,TGI,[50],> 100 µM
same,GI50,[51],27.6 µM
same,TGI,[51],69.3 µM
same,GI50,[52],1.74 µM
same,TGI,[52],3.6 µM
same,GI50,[53],5.02 µM
same,TGI,[53],69.5 µM
same,GI50,[54],2.22 µM
same,TGI,[54],5.99 µM
same,GI50,[55],2.83 µM
same,TGI,[55],12.1 µM
same,GI50,[56],5.03 µM
same,TGI,[56],> 100 µM
same,GI50,[57],2.18 µM
same,TGI,[57],22.1 µM
same,GI50,[58],5.3 µM
same,TGI,[58],> 100 µM
